Assay results as given in patent US12048678B2, “Compounds for treating myelin related disorders” (Case Western Reserve University, priority 2018, dated 2024).

How the values were obtained:
EBP = target: T1, EBP (Mus musculus, UniProt P70245); assay: EBP enzymatic assay; assay type: biochemical; conditions: 10 μM, FIG. 4a
T1 construct: active EBP was obtained from mouse microsomes; from tissue
T1 sequence (P70245 1-230): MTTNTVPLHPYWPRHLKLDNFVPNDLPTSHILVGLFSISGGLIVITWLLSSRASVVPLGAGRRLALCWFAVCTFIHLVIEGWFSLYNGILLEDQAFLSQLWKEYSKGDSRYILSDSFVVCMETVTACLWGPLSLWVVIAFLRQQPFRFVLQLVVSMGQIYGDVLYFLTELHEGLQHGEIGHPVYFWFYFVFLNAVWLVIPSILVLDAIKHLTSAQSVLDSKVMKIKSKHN
Method: EBP enzymatic activity was measured using a reported method with slight modifications: active EBP was obtained from mouse microsomes, inhibitors were added, zymostenol was added at a final concentration of 25 μM in a final reaction volume of 500 μl, and the reaction incubated at 37° C. for 2 h. Sterols were extracted using 3×1 ml hexanes, cholesterol-d7 was added to enable quantitation, and the pooled organics were dried (Na2SO4) and evaporated under nitrogen gas. Samples were then silylated and analyzed using GC/MS as described above.

M1 muscarinic receptor = target: T2, M1 muscarinic receptor (Homo sapiens, UniProt P11229); assay: Muscarinic receptor antagonism assay (GeneBLAzer M1-NFAT-bla CHO-K1 cells); assay type: cell-based; conditions: Compound 1 at 1 μM, TASIN-1 100 nM; concentration maximally effective for oligodendrocyte formation
T2 sequence (P11229 1-460): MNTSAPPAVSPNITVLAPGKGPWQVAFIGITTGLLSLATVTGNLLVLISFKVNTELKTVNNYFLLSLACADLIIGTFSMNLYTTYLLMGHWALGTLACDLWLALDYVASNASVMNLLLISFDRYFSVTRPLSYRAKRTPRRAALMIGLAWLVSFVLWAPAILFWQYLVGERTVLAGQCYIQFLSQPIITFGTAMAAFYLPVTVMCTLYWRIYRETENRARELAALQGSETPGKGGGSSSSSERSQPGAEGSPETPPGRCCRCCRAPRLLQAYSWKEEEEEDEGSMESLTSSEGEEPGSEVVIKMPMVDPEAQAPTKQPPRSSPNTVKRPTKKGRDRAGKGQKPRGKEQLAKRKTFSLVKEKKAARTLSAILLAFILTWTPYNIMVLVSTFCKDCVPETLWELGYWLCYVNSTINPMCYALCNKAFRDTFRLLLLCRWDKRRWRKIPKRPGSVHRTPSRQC

[1] = system: cholesterol biosynthesis in OPCs (CYP51, TM7SF2, EBP); assay: GC/MS-based sterol profiling in OPCs; assay type: cell-based, mouse; conditions: range of doses, GC-MS sterol profiling, FIG. 3f
Method: EpiSC-derived OPCs were plated at 0.5 million cells per ml in PDL- and laminin-coated six or twelve well plate with differentiation media. After 24 hours, cells were dissociated with Accutase, rinsed with saline, and cell pellets were frozen. For sterol analyses, cells were lysed in methanol (Sigma-Aldrich) with agitation for 30 minutes and cell debris removed by centrifugation at 10,000 rpm for 15 min. Cholesterol-d7 standard (25,26,26,26,27,27,27-^2H7-cholesterol, Cambridge Isotope Laboratories) was added before drying under nitrogen stream and derivatization with 55 μl of bis(trimethylsilyl)trifluoroacetamide/trimethylchlorosilane to form trimethylsilyl derivatives. Following derivatization at 60° C. for 20 minutes, 1 μl was analyzed by gas chromatography/mass spectrometry using an Agilent 5973 Network Mass Selective Detector equipped with a 6890 gas chromatograph system and a HP-5MS capillary column ([…]). Samples were injected in splitless mode and analyzed using electron impact ionization. Ion fragment peaks were integrated to calculate sterol abundance, and quantitation was relative to cholesterol-d7. The following m/z ion fragments were used to quantitate each metabolite: cholesterol-d7 (465), FF-Mas (482), cholesterol (368), zymostenol (458), zymosterol (456), desmosterol (456, 343), 7-dehydrocholesterol (456, 325), lanosterol (393), lathosterol (458), 14-dehydrozymostenol (456). Calibration curves were generated by injecting varying concentrations of sterol standards and maintaining a fixed amount of cholesterol-D7. The human glioma cell line GBM528 was a gift of Jeremy Rich (Cleveland Clinic). Human cortical spheroids were generated as described previously.

EBP inhibition in an in vitro enzymatic assay (EBP): enhanced potency for EBP inhibition | effect in cell-based assay for the M1 muscarinic receptor (M1 muscarinic receptor): little affinity
SMILES: c1ccc(-c2ccc(CN3CCCCCCC3)cc2)cc1 [Compound 1]
EBP inhibition in OPCs (zymostenol) [1]: enhanced potency for EBP inhibition
